Experimental data taken from US20200239530A1, “COMPOUNDS AND METHODS OF MODULATING PROTEIN DEGRADATION” (Vividion Therapeutics, Inc., priority 2017, published 2020).

Key:
Test in all cases: Cysteine liganding, probe competition
Format in all cases: binding
[1] = target: T1, TUBA3D Tubulin alpha-3C/D chain (Homo sapiens, UniProt P0DPH8)
T1 construct: Cells were resuspended in cold PBS on ice and sonicated with a probe sonicator to achieve lysis; endogenous in cells
Summary of the method: (§1)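 Read-out is loss of desthiobiotin iodoacetamide labelling at cysteines, measured on streptavidin-enriched tryptic peptides. Compound preincubation ran 1 hr at 25° C in PBS lysate holding 5 mg/ml proteome before the probe was added.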

[2] = target: T2, SEC63 Translocation protein SEC63 homolog (Homo sapiens, UniProt Q9UGP8)
T2 construct: Cells were resuspended in cold PBS on ice and sonicated with a probe sonicator to achieve lysis; endogenous in cells
T2 sequence (Q9UGP8 1-760): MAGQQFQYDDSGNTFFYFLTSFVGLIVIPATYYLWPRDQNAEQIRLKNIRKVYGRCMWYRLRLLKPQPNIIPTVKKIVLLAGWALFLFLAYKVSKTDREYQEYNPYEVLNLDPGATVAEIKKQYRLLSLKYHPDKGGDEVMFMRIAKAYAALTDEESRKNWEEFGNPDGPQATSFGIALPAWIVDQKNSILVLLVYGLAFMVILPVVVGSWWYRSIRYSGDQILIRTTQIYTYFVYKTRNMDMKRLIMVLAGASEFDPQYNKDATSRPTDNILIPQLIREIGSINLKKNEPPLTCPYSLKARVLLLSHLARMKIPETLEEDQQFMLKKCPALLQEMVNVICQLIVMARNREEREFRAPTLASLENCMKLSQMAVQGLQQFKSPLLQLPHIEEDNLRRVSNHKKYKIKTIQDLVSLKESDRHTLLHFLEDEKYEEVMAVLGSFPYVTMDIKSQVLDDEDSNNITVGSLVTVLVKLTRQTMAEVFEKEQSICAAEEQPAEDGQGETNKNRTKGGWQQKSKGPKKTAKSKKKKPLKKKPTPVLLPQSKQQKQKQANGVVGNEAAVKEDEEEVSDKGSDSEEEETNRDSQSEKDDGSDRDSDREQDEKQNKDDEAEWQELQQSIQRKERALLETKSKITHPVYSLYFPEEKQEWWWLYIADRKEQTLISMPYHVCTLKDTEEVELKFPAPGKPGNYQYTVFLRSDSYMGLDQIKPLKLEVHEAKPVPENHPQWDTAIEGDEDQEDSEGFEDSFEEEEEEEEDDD
Summary of the method: as §1

[3] = target: T3, TRIM65 Tripartite motif-containing protein 65 (Homo sapiens, UniProt Q6PJ69)
T3 construct: Cells were resuspended in cold PBS on ice and sonicated with a probe sonicator to achieve lysis; endogenous in cells
T3 sequence (Q6PJ69 1-517): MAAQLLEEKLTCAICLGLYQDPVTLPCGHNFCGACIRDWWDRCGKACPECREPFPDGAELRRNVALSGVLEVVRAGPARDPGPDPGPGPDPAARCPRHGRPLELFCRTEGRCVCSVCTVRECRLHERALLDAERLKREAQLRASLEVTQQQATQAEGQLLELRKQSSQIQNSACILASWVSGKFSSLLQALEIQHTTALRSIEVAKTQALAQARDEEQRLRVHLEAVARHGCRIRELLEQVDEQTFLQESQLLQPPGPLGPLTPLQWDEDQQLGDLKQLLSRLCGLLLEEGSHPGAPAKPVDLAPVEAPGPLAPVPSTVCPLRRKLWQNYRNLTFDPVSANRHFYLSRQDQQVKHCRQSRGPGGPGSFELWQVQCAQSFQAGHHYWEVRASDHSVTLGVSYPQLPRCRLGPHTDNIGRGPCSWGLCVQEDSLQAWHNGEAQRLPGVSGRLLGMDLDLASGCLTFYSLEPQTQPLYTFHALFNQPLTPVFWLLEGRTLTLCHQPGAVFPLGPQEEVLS
Summary of the method: as §1

T1 sequence (P0DPH8 whole entry, looked up): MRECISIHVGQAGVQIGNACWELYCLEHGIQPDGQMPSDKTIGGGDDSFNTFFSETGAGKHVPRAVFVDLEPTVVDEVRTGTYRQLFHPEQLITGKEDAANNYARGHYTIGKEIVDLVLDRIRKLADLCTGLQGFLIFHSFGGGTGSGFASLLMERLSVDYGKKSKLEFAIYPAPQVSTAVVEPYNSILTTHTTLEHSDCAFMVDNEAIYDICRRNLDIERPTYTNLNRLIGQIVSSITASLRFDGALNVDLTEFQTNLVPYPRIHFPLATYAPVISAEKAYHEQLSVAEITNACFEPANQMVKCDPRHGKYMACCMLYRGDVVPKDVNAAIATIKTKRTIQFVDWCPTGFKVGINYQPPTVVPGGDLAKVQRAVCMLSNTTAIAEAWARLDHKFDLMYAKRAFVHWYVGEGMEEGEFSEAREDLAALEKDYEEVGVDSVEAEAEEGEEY

For `COc1ccc2c(c1)CCCN2C(=O)CCl` [KB02], the Liganded ([1]; TUBA3D Res# 4, uniprot Q13748) was “YES”, the Liganded ([1]; TUBA3D Res# 20, uniprot Q13748) was “YES” and the Liganded ([2]; SEC63 Res# 295, uniprot Q9UGP8) was “YES”. For the same molecule, the Liganded ([3]; TRIM65 Res# 320, uniprot Q6PJ69) was “YES”.
With `O=C(CCl)Nc1cc(C(F)(F)F)cc(C(F)(F)F)c1` [KBO3] the Liganded ([1]; TUBA3D Res# 4, uniprot Q13748) was “YES”, the Liganded ([1]; TUBA3D Res# 20, uniprot Q13748) was “YES” and the “100 Max” value ([2]; uniprot Q9UGP8) was 17.92. For the same molecule, the 100 ave ([2]; uniprot Q9UGP8) was 4.99, the “500 Max” value ([2]; uniprot Q9UGP8) was 55.53 and the 500 ave ([2]; uniprot Q9UGP8) was 48.96. The “100 Max” value ([3]; uniprot Q6PJ69) was 35.1, the 100 ave ([3]; uniprot Q6PJ69) was 19.4 and the “500 Max” value ([3]; uniprot Q6PJ69) was 70.9. The 500 ave ([3]; uniprot Q6PJ69) was 60.2.
